Measured values as given in patent US20040147500A1, “Injectable galenic formulation for use in a diagnosis or a photodynamic therapy and method for preparing same” (priority 2001, published 2004).

What was measured:
[1] = system: rats (Sprague Dawley), rabbits (New-Zealand albino), monkeys (Cynomolgus); format: in vivo; details: intravenous, injection speeds up to 4 ml/min
Procedure: Male rats (Sprague Dawley): 6 to 12 animals for each dose (2×5, 2×10 and 2×20 mg/kg. The product was injected intravenously into the caudal vein.
Rabbits (New-Zealand albino rabbits): 5 animals received the dose of 5 mg/kg. The product was injected three times intravenously, once intra-arterially and once perivenously.
Monkeys (Cynomolgus, of a weight varying from 2.5 to 3.2 kg): 6 to 10 animals of each sex for each dose (1, 2, 5 and 6 mg/kg). The product was injected intravenously into the saphenous vein or into the cephalic vein, once each day during 14 days.
Monkeys (Cyonomolgus of a weight varying from 2.25 to 4.7 kg): 3 to 6 animals for each dose (2 and 5 mg/kg). The product was injected intravenously into the saphenous vein or into the cephalic vein.
The assessment of the animals was made on the basis of clinical signs, biological analyses carried out on the blood and on the urine, cardiovascular examinations and of histopathological examinations.

[2] = system: mice (OF), rats (Sprague Dawley), monkeys (Cynomolgus); format: in vivo; details: intravenous, provided the injections were made slowly
Procedure: 1—Mice (OF, of a weight varying from 25 to 35 grams): 10 animals of each sex for each dose (2×25, 2×50, 2×75 and 1×100 mg/kg).The product was injected into the caudal vein.
2—Rats (Sprague Dawley, of a weight varying from 150 to 230 grams): 4 to 10 animals of each sex for each dose (from 4 to 200 mg/kg). The product was injected into the caudal vein.
3—Monkeys (Cynomolgus of a weight varying from 1.8 kg to 3.5 kg): 1 animal of each sex for each dose (8, 16 and 24 mg/kg). The product was injected into the saphenous vein or into the cephalic vein once a day during 7 days.
The assessment of the animals was made on the basis of clinical signs, biological analyses carried out on the blood and the urine and of histopathological examinations.

[3] = in vivo; cited from earlier work

Substance: Pd-bacteriopheophorbide a [Pd-Bpheide a]
- tolerance in toxicity studies [1]: well tolerated
- tolerance in toxicity studies [2]: well tolerated
- cutaneous and ocular photosensitisation [3]: no or little cutaneous photosensitisation
